This note sets out measurements from ChEMBL document CHEMBL1131960, “Simple mono-derivatisation of the aryl moiety of D4A and DDA-based phosphoramidate prodrugs significantly enhances their anti-HIV potency in cell culture” (Bioorg Med Chem Lett, 1999).

The nature of data set [1]: Compound was evaluated for its ability to inhibit the growth of HIV-2 in CEM cell culture (CC50/EC50). Type of data set: functional, CCRF-CEM.
Data set [2] can be described thus: Compound was evaluated for its lipophilicity by 1-octanol/water (phosphate buffer, pH 7.0) and the partition coefficient (log P) was reported. It counts as physicochemical.
Data set [3] can be described thus: Compound was evaluated for its ability to inhibit the growth of HIV-1 in CEM cell culture (CC50/EC50). Type of data set: functional, CCRF-CEM.
Data set [4] concerns CCRF-CEM. Kind of data set: Compound was evaluated for its effective concentration (potency) to inhibit the growth of HIV-1 in CEM cell culture. Type of data set: functional, cell-based. The note with it: Homo sapiens.
Data set [5] concerns CCRF-CEM. Kind of data set: Compound was evaluated for its effective concentration (potency) to inhibit the growth of HIV-2 in CEM cell culture. As to conditions: Homo sapiens. It counts as functional, cell-based.
Data set [6] concerns CCRF-CEM. Kind of data set: Compound was evaluated for its concentration (potency) to inhibit the growth of CEM cells. As to conditions: Homo sapiens. It counts as functional.
Another data set concerns esterase. The data set is described as follows: Compound was evaluated for esterase half-life (t 1/2) period using Pig Liver Esterase (PLE) assay. It counts as ADME, Sus scrofa.

The term logD denotes lipophilicity at a set pH, counting ionised and neutral species. Low values mean lower lipophilicity, high ones higher lipophilicity. Usually EC50 stands for the concentration that produces a half-maximal response. The low end stands for a more potent agent, the high end for a less potent agent. For orientation: CC50 means the concentration giving 50% cytotoxicity. Low values mean harm at low concentration, high ones better tolerance by the cells. Take `Nc1ncnc2c1ncn2[C@H]1CC[C@@H](CO)O1`: the values for the SI in data set [1] and in data set [3] were above 13 and above 25, respectively. The same molecule had a log distribution coefficient (logD) in data set [2] of -0.22. For the same molecule, the values for the EC50 with CCRF-CEM [4] and in the data set on CCRF-CEM [5] were 4000 nM and 8000 nM, respectively. Besides, the CC50 in the data set with CCRF-CEM [6] was above 100000 nM.

For the molecule `Nc1ncnc2c1ncn2[C@H]1C=C[C@@H](CO)O1`, the SI in data set [1] and in data set [3] was 4.6 in each case. In addition, in data set [2], the logD is -0.36. For the same molecule, in the data set with CCRF-CEM [6], the CC50 came out at 91000 nM.

By half-life is commonly meant the time in which the quantity being followed falls by half. Low values mean fast loss, high ones slow loss. With `COC(=O)C(C)NP(=O)(OCC1CCC(n2cnc3c(N)ncnc32)O1)Oc1ccccc1` (stereo unspecified), the SI in data set [1] amounted to 73; in data set [3], 161. In data set [2], this molecule gave a logD of 0.89. The half-life in the data set with esterase was 301 h. The concentration for a half-maximal effect (EC50) in the data set with CCRF-CEM [4] was found to be 16 nM; with CCRF-CEM [5] it was 35 nM. Further, in the data set with CCRF-CEM [6], it took 2570 nM to reach half-maximal cytotoxicity (CC50).

For the molecule `COC(=O)C(C)NP(=O)(OCC1C=CC(n2cnc3c(N)ncnc32)O1)Oc1ccc(Br)cc1` (stereo unspecified), the values for the SI in data set [1] and in data set [3] were 311 and 263, respectively. Further, in data set [2], the log distribution coefficient (logD) is 1.72. The molecule also gave a half-life in the data set with esterase of 100 h. The values for the EC50 with CCRF-CEM [4] and in the data set on CCRF-CEM [5] were 3.2 nM and 2.7 nM, respectively. Further, the CC50 in the data set with CCRF-CEM [6] stood at 840 nM.

As to `COC(=O)C(C)NP(=O)(OCC1CCC(n2cnc3c(N)ncnc32)O1)Oc1cccc(Br)c1` (stereo unspecified), the SI in data set [1] came to 170; in data set [3], 243. Besides, the pH-dependent lipophilicity (logD) in data set [2] turned out to be 1.71. This molecule also showed a half-life in the data set with esterase of 75 h. For the same molecule, the concentration giving a half-maximal response (EC50) with CCRF-CEM [4] worked out at 2.3 nM; in the data set with CCRF-CEM [5], 3.3 nM. The molecule also registered a CC50 with CCRF-CEM [6] of 560 nM.

On to `COC(=O)C(C)NP(=O)(OCC1C=CC(n2cnc3c(N)ncnc32)O1)Oc1ccc(I)cc1` (stereo unspecified), for which the SI in data set [1] worked out at 506; in data set [3], 374. Also, the logD in data set [2] was found to be 2.11. Further, in the data set with esterase, the half-life was 62 h. Also, the 50% effective concentration (EC50) in the data set with CCRF-CEM [4] was 2.3 nM; with CCRF-CEM [5], 1.7 nM. Moreover, it took 860 nM to reach half-maximal cytotoxicity with CCRF-CEM [6] (CC50).

Regarding `COC(=O)C(C)NP(=O)(OCC1CCC(n2cnc3c(N)ncnc32)O1)Oc1cccc(I)c1` (stereo unspecified), the SI in data set [1] is listed as 159; in data set [3] it was 195. In data set [2], this molecule returned a logD of 2.07. Also, in the data set on esterase, the half-life was 62 h. The concentration for a half-maximal effect (EC50) with CCRF-CEM [4] stood at 2.2 nM; with CCRF-CEM [5], 2.7 nM. In addition, in the data set with CCRF-CEM [6], the cytotoxic concentration (CC50) is 430 nM.

Regarding `COC(=O)C(C)NP(=O)(OCC1C=CC(n2cnc3c(N)ncnc32)O1)Oc1ccccc1` (stereo unspecified), the SI in data set [1] is recorded as 211; in data set [3] it was 691. In data set [2], the pH-dependent lipophilicity (logD) worked out at 0.94. This molecule also showed a half-life in the data set with esterase of 301 h. The EC50 in the data set on CCRF-CEM [4] worked out at 5.5 nM. This molecule displayed a CC50 in the data set on CCRF-CEM [6] of 3800 nM.
